Test results taken from ChEMBL document CHEMBL5120874, “Tanzawaic Acid Derivatives: Fungal Polyketides from the Deep-Sea Coral-Derived Endozoic Penicillium steckii AS-324” (2022).
≈ marks a conversion by molar mass, not a printed value.

What was measured:
Type in all cases: functional
Aeromonas hydrophila = assay: Antibacterial activity against Aeromonas hydrophila QDIO-1 assessed as inhibition of bacterial growth by serial dilution method
Escherichia coli = assay: Antibacterial activity against Escherichia coli EMBLC-1 assessed as inhibition of bacterial growth by serial dilution method
Edwardsiella tarda = assay: Antibacterial activity against Edwardsiella tarda QDIO-2 assessed as inhibition of bacterial growth by serial dilution method
Micrococcus luteus = assay: Antibacterial activity against Micrococcus luteus QDIO-3 assessed as inhibition of bacterial growth by serial dilution method
Pseudomonas aeruginosa = assay: Antibacterial activity against Pseudomonas aeruginosa QDIO-4 assessed as inhibition of bacterial growth by serial dilution method
Vibrio anguillarum = assay: Antibacterial activity against Vibrio anguillarum QDIO-6 assessed as inhibition of bacterial growth by serial dilution method
Vibrio alginolyticus = assay: Antibacterial activity against Vibrio alginolyticus QDIO-5 assessed as inhibition of bacterial growth by serial dilution method
Vibrio parahaemolyticus = assay: Antibacterial activity against Vibrio parahaemolyticus QDIO-8 assessed as inhibition of bacterial growth by serial dilution method

SMILES | MIC (Aeromonas hydrophila) [µg/mL] | MIC (Escherichia coli) [µg/mL] | MIC (Edwardsiella tarda) [µg/mL] | MIC (Micrococcus luteus) [µg/mL] | MIC (Pseudomonas aeruginosa) [µg/mL] | MIC (Vibrio anguillarum) [µg/mL] | MIC (Vibrio alginolyticus) [µg/mL] | MIC (Vibrio parahaemolyticus) [µg/mL]
Cc1ccc2c(c1/C=C/C=C/C(=O)O)[C@H](C)C[C@@](C)(O)C2 | > 64 | > 64 | > 64 | > 64 | 16 (≈ 55.9 µM) | > 64 | > 64 | > 64
C[C@H]1C=C[C@H]2C[C@@H](CO)C[C@](C)(O)[C@@H]2[C@H]1/C=C/C=C/C(=O)O | > 64 | > 64 | > 64 | > 64 | 4 (≈ 13.1 µM) | > 64 | > 64 | > 64
CO[C@]1(C)C=C[C@H]2C[C@@H](CO)C[C@@H](C)[C@@H]2[C@H]1/C=C/C=C/C(=O)O | > 64 | > 64 | > 64 | > 64 | > 64 | 8 (≈ 25 µM) | > 64 | 64 (≈ 200 µM)
C[C@@H]1C[C@H](CO)C[C@@H]2C=C[C@@](C)(O)[C@](O)(/C=C/C=C/C(=O)O)[C@@H]12 | > 64 | > 64 | > 64 | > 64 | > 64 | 8 (≈ 24.8 µM) | 32 (≈ 99.3 µM) | 64 (≈ 199 µM)
Cc1ccc2c(c1/C=C/C=C/C(=O)O)[C@H](C)C[C@H](C)[C@@H]2O | 32 (≈ 112 µM) | 64 (≈ 223 µM) | > 64 | 64 (≈ 223 µM) | > 64 | 4 (≈ 14 µM) | 32 (≈ 112 µM) | 32 (≈ 112 µM)
C[C@@H]1C[C@@H]2C=C[C@H](C)[C@H](/C=C/C=C/C(=O)O)[C@H]2[C@@](C)(O)C1 | > 64 | 64 (≈ 220 µM) | > 64 | > 64 | > 64 | > 64 | 32 (≈ 110 µM) | 64 (≈ 220 µM)
CC1C=C[C@H]2C[C@@H](CO)C[C@@H](C)[C@@H]2[C@H]1/C=C/C=C/C(=O)O (stereo not given in full) | 64 (≈ 220 µM) | 64 (≈ 220 µM) | > 64 | 8 (≈ 27.5 µM) | > 64 | > 64 | 8 (≈ 27.5 µM) | > 64
CO[C@@]1(C)C=C[C@H]2C[C@@H](CO)C[C@@H](C)[C@@H]2[C@H]1/C=C/C=C/C(=O)O | > 64 | 8 (≈ 25 µM) | > 64 | > 64 | > 64 | > 64 | 32 (≈ 99.9 µM) | > 64
Cc1ccc2c(c1/C=C/C=C/C(=O)O)[C@H](C)C[C@@](C)(O)C2=O | > 64 | 64 (≈ 213 µM) | > 64 | > 64 | > 64 | 4 (≈ 13.3 µM) | > 64 | 64 (≈ 213 µM)
O=C(N[C@H](CO)[C@H](O)c1ccc([N+](=O)[O-])cc1)C(Cl)Cl [CHLORAMPHENICOL] | 1 (≈ 3.09 µM) | 1 (≈ 3.09 µM) | 2 (≈ 6.19 µM) | 0.5 (≈ 1.55 µM) | 1 (≈ 3.09 µM) | 2 (≈ 6.19 µM) | 2 (≈ 6.19 µM) | 1 (≈ 3.09 µM)

Further lines, with some results ahead:

MIC (Aeromonas hydrophila) [µg/mL] | MIC (Escherichia coli) [µg/mL] | MIC (Edwardsiella tarda) [µg/mL] | MIC (Micrococcus luteus) [µg/mL] | MIC (Pseudomonas aeruginosa) [µg/mL] | MIC (Vibrio anguillarum) [µg/mL] | MIC (Vibrio alginolyticus) [µg/mL] | SMILES | MIC (Vibrio parahaemolyticus) [µg/mL]
64 (≈ 227 µM) | > 64 | > 64 | > 64 | > 64 | > 64 | 32 (≈ 113 µM) | Cc1cc(C)c2c(/C=C/C=C/C(=O)O)c(CO)ccc2c1 | 64 (≈ 227 µM)
> 64 | > 64 | > 64 | > 64 | > 64 | > 64 | 64 (≈ 215 µM) | Cc1cc(CO)cc2ccc(CO)c(/C=C/C=C/C(=O)O)c12 | > 64
> 64 | > 64 | > 64 | > 64 | > 64 | > 64 | > 64 | Cc1cc(CO)cc2ccc(CO)c(/C=C\C=C\C(=O)O)c12 | > 64
> 64 | > 64 | > 64 | > 64 | > 64 | 4 (≈ 14 µM) | > 64 | Cc1ccc2c(c1/C=C/C=C/C(=O)O)[C@H](C)C[C@H](CO)C2 | 64 (≈ 223 µM)
> 64 | 64 (≈ 227 µM) | 64 (≈ 227 µM) | 2 (≈ 7.08 µM) | > 64 | > 64 | 16 (≈ 56.7 µM) | Cc1ccc2cc(CO)cc(C)c2c1/C=C/C=C/C(=O)O | 32 (≈ 113 µM)
